Results on 1 compound are retold here after article PMC7180948, “New Insights into 4-Anilinoquinazolines as Inhibitors of Cardiac Troponin I–Interacting Kinase (TNNi3K)” (Molecules, 2020).

Molecules are shown by their SMILES.

Holding throughout (assay): biochemical
What all share (set-up): KINOMEscan competition binding panel (Eurofins DiscoverX), single concentration, % inhibition
Common to all, as to conditions: read-out: 7 at 1 µM % inhibition

The target in one assay is KIT(V559D) (Homo sapiens, UniProt P10721, V559D). Put shortly: (§1)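 KINOMEscan selectivity screen; >400 human kinases; compound at 1 µM, single concentration.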
Chain of KIT(V559D) (P10721 whole entry V559D): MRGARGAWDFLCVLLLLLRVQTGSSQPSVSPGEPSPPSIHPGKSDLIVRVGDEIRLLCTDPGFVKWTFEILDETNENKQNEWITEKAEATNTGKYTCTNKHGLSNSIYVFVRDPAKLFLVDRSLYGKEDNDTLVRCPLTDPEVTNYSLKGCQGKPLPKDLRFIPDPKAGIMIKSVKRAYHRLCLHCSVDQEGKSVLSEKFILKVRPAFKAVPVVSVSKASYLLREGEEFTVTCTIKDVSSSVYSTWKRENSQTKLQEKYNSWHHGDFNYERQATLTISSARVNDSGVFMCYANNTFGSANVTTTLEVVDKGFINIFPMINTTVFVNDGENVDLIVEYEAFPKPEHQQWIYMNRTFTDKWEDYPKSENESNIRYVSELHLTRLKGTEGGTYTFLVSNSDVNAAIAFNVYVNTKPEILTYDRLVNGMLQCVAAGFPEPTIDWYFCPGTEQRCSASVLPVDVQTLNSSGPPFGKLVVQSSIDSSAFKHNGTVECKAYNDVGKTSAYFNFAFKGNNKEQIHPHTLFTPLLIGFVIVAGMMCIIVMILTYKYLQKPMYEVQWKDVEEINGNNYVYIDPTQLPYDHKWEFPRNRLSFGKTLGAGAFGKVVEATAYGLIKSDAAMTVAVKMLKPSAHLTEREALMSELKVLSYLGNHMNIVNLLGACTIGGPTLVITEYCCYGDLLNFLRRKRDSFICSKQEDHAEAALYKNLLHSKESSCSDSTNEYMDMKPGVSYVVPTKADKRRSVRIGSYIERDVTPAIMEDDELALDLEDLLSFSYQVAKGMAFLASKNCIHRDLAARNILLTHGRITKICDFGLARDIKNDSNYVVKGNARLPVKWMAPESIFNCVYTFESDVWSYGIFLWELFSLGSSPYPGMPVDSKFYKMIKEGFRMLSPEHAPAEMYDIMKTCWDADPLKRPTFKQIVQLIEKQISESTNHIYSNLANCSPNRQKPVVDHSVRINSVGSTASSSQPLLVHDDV
A further assay has as its target PLK1 (Homo sapiens, UniProt P53350). Put shortly:
as §1

Another assay concerns the target GRK3 (Homo sapiens, UniProt P35626). A digest of the protocol: as §1
The next assay has as its target EPHB1 (Homo sapiens, UniProt P54762). Put shortly:
as §1

The target of a further assay is T1, CDK4-cyclinD1 (Homo sapiens, UniProt P11802).
T1 construct: cyclinD1
A digest of the protocol: as §1

Another assay concerns the target T2, p38-gamma (Homo sapiens, UniProt P53778).
T2 construct: gene MAPK12
Put shortly: as §1

A further assay has as its target CDK3 (Homo sapiens, UniProt Q00526). A digest of the protocol: as §1
A further assay has as its target MAP3K4 (Homo sapiens, UniProt Q9Y6R4). Put shortly: as §1
The target of a further assay is T3, CDK11 (Homo sapiens, UniProt Q9BWU1).
T3 construct: gene CDK19
T3 sequence (Q9BWU1 whole entry): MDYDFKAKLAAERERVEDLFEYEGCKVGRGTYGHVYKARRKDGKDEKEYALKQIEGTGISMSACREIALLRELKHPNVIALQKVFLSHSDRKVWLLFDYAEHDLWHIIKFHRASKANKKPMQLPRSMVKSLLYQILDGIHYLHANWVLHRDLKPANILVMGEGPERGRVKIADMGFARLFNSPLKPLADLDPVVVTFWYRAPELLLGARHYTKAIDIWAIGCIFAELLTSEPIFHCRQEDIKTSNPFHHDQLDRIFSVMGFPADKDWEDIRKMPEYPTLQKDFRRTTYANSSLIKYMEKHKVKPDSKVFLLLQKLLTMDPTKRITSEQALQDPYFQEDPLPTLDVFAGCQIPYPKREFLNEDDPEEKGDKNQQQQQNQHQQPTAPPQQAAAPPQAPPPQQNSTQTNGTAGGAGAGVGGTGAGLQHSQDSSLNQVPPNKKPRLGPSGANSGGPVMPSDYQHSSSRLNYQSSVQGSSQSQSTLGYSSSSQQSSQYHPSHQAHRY
A digest of the protocol: as §1

A further assay concerns the target CLK2 (Homo sapiens, UniProt P49760). Put shortly: as §1
The target of another assay is T4, CDC2L1 (Homo sapiens, UniProt P21127).
T4 construct: gene CDK11B
Put shortly:
as §1

In another assay the target is T5, VEGFR2 (Homo sapiens, UniProt P35968).
T5 construct: gene KDR
A digest of the protocol: as §1

The target of a further assay is ACVR2B (Homo sapiens, UniProt Q13705). A digest of the protocol:
as §1

The next assay concerns the target WNK2 (Homo sapiens, UniProt Q9Y3S1). Put shortly:
as §1

Another assay has as its target PKN1 (Homo sapiens, UniProt Q16512). Put shortly: as §1
The next assay deals with FGFR3 (Homo sapiens, UniProt P22607). A digest of the protocol:
as §1

Another assay deals with CAMK2G (Homo sapiens, UniProt Q13555). A digest of the protocol: as §1
A further assay deals with T6, DCAMKL1 (Homo sapiens, UniProt O15075).
T6 construct: gene DCLK1
A digest of the protocol: as §1

Assay [1] addresses T7, RPS6KA4(Kin.Dom.2-C-terminal) (Homo sapiens, UniProt O75676).
T7 construct: Kin.Dom.2-C-terminal
Put shortly: as §1

In a further assay the target is T8, GCN2(Kin.Dom.2,S808G) (Homo sapiens, UniProt Q9P2K8, S808G).
T8 construct: gene EIF2AK4; Kin.Dom.2
Put shortly: as §1

A further assay concerns the target STK35 (Homo sapiens, UniProt Q8TDR2). A digest of the protocol: as §1
Another assay has as its target RIOK2 (Homo sapiens, UniProt Q9BVS4). A digest of the protocol: as §1
Another assay deals with MAP3K15 (Homo sapiens, UniProt Q6ZN16). A digest of the protocol: as §1
For the next assay, the target named is FGFR1 (Homo sapiens, UniProt P11362). Put shortly: as §1
Chain of FGFR1 (P11362 whole entry): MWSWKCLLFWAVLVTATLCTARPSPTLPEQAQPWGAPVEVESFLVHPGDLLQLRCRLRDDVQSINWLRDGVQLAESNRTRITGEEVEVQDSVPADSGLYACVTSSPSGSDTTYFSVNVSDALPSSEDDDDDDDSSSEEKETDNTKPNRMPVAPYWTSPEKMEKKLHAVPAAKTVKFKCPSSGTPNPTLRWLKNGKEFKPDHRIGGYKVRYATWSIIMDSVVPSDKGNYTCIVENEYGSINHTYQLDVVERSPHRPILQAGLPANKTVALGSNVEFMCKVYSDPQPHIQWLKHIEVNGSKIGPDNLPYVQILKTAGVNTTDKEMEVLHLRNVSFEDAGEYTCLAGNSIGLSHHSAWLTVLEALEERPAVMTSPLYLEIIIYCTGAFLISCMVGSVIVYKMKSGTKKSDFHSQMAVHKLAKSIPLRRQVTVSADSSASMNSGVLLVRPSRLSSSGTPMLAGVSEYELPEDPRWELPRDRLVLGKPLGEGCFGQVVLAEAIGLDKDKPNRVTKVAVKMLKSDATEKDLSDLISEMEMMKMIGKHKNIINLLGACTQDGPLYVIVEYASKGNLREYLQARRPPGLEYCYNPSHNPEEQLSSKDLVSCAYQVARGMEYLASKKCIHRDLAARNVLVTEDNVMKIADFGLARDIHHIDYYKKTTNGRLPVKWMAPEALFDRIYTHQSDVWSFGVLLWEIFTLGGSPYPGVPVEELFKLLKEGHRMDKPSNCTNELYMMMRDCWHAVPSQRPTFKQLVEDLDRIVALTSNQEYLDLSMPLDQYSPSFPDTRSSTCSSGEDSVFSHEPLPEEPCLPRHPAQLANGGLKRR

One may read the inhibition as how much of the control response was suppressed.

Chain of EPHB1 (P54762 whole entry): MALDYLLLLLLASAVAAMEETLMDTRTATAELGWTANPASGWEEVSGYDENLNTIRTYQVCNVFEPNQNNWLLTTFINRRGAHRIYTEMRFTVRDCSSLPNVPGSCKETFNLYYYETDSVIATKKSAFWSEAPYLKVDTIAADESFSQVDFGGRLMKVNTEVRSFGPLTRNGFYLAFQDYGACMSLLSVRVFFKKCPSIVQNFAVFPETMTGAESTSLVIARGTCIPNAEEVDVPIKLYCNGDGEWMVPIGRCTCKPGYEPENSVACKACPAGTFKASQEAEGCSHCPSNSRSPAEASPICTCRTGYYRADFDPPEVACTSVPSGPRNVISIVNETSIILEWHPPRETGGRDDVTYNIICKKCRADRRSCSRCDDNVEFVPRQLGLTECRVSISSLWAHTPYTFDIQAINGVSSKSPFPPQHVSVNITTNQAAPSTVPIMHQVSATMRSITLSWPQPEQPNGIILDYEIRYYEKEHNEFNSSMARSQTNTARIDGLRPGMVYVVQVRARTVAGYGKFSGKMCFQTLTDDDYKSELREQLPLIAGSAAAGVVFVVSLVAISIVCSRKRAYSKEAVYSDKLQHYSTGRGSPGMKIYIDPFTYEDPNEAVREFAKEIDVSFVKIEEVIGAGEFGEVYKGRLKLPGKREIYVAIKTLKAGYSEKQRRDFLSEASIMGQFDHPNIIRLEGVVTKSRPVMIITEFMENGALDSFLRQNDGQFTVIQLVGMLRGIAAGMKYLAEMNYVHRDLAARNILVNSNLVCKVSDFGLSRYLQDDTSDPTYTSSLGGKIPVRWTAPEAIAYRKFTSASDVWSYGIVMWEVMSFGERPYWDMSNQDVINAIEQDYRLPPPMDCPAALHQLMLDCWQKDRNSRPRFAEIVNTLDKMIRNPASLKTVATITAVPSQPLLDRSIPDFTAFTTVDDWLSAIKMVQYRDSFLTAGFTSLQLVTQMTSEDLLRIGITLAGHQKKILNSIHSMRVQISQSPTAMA
Chain of FGFR3 (P22607 whole entry): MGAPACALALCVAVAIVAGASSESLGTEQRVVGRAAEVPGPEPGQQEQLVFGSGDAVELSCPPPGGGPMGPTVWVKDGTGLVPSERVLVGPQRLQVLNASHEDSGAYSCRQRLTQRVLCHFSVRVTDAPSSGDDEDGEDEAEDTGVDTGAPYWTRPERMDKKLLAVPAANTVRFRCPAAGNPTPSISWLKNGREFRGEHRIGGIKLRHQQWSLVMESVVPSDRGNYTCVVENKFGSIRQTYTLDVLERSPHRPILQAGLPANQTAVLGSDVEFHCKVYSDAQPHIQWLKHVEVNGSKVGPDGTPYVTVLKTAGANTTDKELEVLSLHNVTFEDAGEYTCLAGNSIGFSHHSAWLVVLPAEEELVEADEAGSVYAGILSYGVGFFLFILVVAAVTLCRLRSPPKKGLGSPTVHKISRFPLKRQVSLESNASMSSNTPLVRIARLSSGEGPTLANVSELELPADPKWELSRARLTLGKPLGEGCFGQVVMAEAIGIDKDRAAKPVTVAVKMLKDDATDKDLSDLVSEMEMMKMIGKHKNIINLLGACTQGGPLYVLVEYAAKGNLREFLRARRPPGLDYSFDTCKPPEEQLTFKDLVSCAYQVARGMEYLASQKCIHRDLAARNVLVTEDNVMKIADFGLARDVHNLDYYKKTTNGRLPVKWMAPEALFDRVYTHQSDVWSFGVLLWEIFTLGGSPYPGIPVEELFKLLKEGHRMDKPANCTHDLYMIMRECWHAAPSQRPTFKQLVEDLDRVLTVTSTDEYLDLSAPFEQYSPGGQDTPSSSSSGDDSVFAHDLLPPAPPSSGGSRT
Chain of PKN1 (Q16512 whole entry): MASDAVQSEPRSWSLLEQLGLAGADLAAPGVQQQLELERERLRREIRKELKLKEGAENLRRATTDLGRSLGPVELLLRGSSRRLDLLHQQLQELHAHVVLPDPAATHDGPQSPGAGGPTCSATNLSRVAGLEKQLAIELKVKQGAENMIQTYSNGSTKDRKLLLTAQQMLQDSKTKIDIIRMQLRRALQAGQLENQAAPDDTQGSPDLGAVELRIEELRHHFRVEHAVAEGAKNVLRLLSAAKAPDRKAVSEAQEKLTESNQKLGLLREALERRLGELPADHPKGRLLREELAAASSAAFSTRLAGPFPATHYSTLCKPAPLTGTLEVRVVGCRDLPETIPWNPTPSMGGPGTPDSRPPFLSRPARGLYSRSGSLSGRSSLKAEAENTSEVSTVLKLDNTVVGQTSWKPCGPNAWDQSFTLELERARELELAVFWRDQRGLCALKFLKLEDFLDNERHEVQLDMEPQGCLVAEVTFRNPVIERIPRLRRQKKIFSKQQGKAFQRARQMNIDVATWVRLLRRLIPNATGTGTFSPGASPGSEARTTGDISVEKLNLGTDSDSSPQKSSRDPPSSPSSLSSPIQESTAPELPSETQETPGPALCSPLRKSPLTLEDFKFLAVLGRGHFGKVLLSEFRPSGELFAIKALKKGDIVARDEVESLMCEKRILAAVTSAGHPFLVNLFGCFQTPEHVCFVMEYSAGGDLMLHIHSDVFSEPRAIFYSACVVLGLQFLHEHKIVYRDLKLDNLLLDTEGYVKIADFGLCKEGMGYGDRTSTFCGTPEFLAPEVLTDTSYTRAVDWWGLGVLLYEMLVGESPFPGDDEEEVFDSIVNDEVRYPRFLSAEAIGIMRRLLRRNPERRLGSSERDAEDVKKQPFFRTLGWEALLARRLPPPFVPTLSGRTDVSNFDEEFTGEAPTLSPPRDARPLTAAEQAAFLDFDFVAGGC

With `CNS(=O)(=O)c1ccc(N(C)C)c(Nc2ncnc3cc(OC)c(OC)cc23)c1` [compound 7, 3-((6,7-dimethoxyquinazolin-4-yl)amino)-4-(dimethylamino)-N-methylbenzenesulfonamide], the inhibition at 1 µM turned out to be 28% on KIT(V559D); 0% on PLK1; 38% at GRK3; 0% at EPHB1; 20% on CDK4-cyclinD1; 0% at p38-gamma. Besides, the inhibition at 1 µM amounted to 1% on CDK3; 0% on MAP3K4; 0% at CDK11; 7% at CLK2; 0% on CDC2L1; 26% at VEGFR2. Also, the inhibition at 1 µM on ACVR2B worked out at 6%; on WNK2 it was 0%; on PKN1 it was 0%; on FGFR3, 0%; at CAMK2G it was 0%; at DCAMKL1, 12%. Besides, the inhibition at 1 µM in assay [1] is 9%; on GCN2(Kin.Dom.2,S808G), 7%; on STK35 it was 0%; at RIOK2, 0%; at MAP3K15 it was 4%; on FGFR1, 20%.
